The results in this text go back to patent US10000450B2, “N,N-substituted 3-aminopyrrolidine compounds useful as monoamines reuptake inhibitors” (OTSUKA PHARMACEUTICAL CO., LTD., priority 2005, dated 2018).

Data set [1] addresses T1, Norepinephrine (NE) uptake into rat brain synaptosome (hippocampus) (Rattus norvegicus, UniProt Q63380).
T1 construct: used as crude synaptosome fraction; from tissue; host or cells: rat (male Wistar) hippocampus, crude synaptosome fraction
In words: Inhibitory activity on norepinephrine (NE) uptake into rat brain synaptosome. The class given is biochemical. The following applies: tritium-labeled NE 12 nM uptake, 10 min at 37° C., read-out: 50% inhibitory concentration. The method, then:
Pharmacological Test 2 Evaluation of Inhibitory Activity of Test Compound on Norepinephrine (NE) Uptake into Rat Brain Synaptosome
(§1) Male Wistar rats were decapitated and the brains were removed and the hippocampi were dissected. The separated hippocampi were homogenized in 20 volumes as weight of 0.32 M sucrose solution by a Potter-type homogenizer. The homogenate was centrifuged at 1000 g at 4° C. for 10 minutes, and the supernatant was then centrifuged at 20000 g at 4° C. for 20 minutes. The pellet was resuspended in incubation buffer (20 mM HEPES buffer (pH 7.4)) containing 10 mM glucose, 145 mM sodium chloride, 4.5 mM potassium chloride, 1.2 mM magnesium chloride, and 1.5 mM calcium chloride) and used as crude synaptosome fraction.
The uptake reaction mixture was suspended in final volume of 200 μl containing pargyline (final concentration of 10 μM) and sodium ascorbate (final concentration of 0.2 mg/ml) in each well of 96-well-round-bottom-plate.
Solvent, unlabeled NE, and serial diluted test compounds were added to each well, and synaptosome fraction of 1/10 volume of the final volume were added. After 10 minutes preincubation at 37° C., the uptake was initiated by the addition of tritium-labeled NE solution (final concentration of 12 nM) at 37° C. The uptake was stopped after 10 minutes by filtration under vacuum through a 96-well glass fiber filter plate. After washing the filter with cold physiological saline and drying up, Microscint-0 (Perkin-Elmer) was added, and remained radioactivity on the filter was measured.
The total uptake activity with only solvent was determined as 100%, and the nonspecific uptake activity with unlabeled NE (final concentration of 10 μM) was determined as 0%. The 50% inhibitory concentrations were calculated based on the concentrations of the test compounds and their inhibitory activities.

Data set [2] has as its target T2, Dopamine (DA) uptake into rat brain synaptosome (striatum) (Rattus norvegicus, UniProt P23977).
T2 construct: used as crude synaptosome fraction; from tissue; host or cells: rat (male Wistar) striatum, crude synaptosome fraction
In words: Inhibitory activity on dopamine (DA) uptake into rat brain synaptosome. The class given is biochemical. Particulars: tritium labeled DA 2 nM uptake, 10 min at 37° C., read-out: 50% inhibitory concentration. The method, then: Pharmacological Test 3 Evaluation of Inhibitory Activity of Test Compound on Dopamine (DA) into Rat Brain Synaptosome
as §1, with “striata” for “hippocampi”
(§2) The uptake reaction mixture was suspended in a final volume of 200 μl containing pargyline (final concentration of 10 μM) and sodium ascorbate (final concentration of 0.2 mg/ml) in each well of 96-well-round-bottom-plate.
Solvent, unlabeled DA, and serial diluted test compounds were added in each well, and synaptosome fraction of 1/10 volume of the final volume were added. After 10-min preincubation at 37° C., the uptake was initiated by the addition of tritium labeled DA solution (final concentration of 2 nM) at 37° C. The uptake was stopped after 10 minutes by filtration under vacuum through a 96-well glass fiber filter plate. After washing the filter with cold physiological saline and drying up, Microscint-0 (Perkin-Elmer) was added and remained radioactivity on the filter was measured.
The uptake activity with only solvent was determined as 100%, and the nonspecific uptake activity with unlabeled DA (final concentration of 10 μM) was determined as 0%. The 50% inhibitory concentrations were calculated based on the concentrations of the test compounds and their inhibitory activities.

The target in data set [3] is T3, Serotonin (5-HT) uptake into rat brain synaptosome (frontal cortex) (Rattus norvegicus, UniProt P31652).
T3 construct: used as crude synaptosome fractions; from tissue; host or cells: rat (male Wistar) frontal cortex, crude synaptosome fraction
In words: Inhibitory activity on serotonin (5-HT) uptake into rat brain synaptosome. It is filed as biochemical. Particulars: tritium-labeled 5-HT 8 nM uptake, 10 min at 37° C., read-out: 50% inhibittory concentration. The method, then: Pharmacological Test 1 Evaluation of Inhibitory Activity of Test Compound on Serotonin (5-HT) Uptake into Rat Brain Synaptosome
as §1, with “frontal cortices” for “hippocampi”, “fractions.” for “fraction.”
as §2
Solvent, unlabeled 5-HT, and serial diluted test compounds were added in each well, and synaptosome fraction of 1/10 volume of the final volume were added. After a 10 min preincubation at 37° C., the uptake was initiated by the addition of tritium-labeled 5-HT solution (final concentration of 8 nM) at 37° C. The uptake was stopped after 10 minutes by filtration under vacuum through a 96-well glass fiber filter plate. After washing the filter with cold physiological saline and drying up, Microscint-O (Perkin-Elmer) was added, and remained radioactivity on the filter was measured.
The total uptake activity with only solvent was determined as 100%, and the nonspecific uptake activity with unlabeled 5-HT (final concentration of 10 μM) was determined as 0%. The 50% inhibitory concentrations were calculated based on the concentrations of the test compounds and their inhibitory activities.

Structures can show the parent of a compound that is named as a salt.

T2 sequence (P23977 whole entry): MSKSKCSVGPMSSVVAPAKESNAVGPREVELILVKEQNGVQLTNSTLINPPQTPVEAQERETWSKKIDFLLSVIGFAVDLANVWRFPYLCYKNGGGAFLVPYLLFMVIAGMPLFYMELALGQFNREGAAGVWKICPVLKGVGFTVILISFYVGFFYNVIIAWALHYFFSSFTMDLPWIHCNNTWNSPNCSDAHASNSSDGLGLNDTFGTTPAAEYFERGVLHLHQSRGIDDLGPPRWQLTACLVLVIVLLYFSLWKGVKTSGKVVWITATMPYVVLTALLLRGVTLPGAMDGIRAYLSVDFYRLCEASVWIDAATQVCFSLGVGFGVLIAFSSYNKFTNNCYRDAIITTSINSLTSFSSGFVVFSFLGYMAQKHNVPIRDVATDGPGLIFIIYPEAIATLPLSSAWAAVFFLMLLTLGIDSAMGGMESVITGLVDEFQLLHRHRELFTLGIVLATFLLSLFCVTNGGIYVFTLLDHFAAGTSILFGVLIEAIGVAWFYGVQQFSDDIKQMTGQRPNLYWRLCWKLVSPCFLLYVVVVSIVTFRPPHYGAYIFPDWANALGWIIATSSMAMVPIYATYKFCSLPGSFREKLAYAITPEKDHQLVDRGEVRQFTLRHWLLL
T3 sequence (P31652 whole entry): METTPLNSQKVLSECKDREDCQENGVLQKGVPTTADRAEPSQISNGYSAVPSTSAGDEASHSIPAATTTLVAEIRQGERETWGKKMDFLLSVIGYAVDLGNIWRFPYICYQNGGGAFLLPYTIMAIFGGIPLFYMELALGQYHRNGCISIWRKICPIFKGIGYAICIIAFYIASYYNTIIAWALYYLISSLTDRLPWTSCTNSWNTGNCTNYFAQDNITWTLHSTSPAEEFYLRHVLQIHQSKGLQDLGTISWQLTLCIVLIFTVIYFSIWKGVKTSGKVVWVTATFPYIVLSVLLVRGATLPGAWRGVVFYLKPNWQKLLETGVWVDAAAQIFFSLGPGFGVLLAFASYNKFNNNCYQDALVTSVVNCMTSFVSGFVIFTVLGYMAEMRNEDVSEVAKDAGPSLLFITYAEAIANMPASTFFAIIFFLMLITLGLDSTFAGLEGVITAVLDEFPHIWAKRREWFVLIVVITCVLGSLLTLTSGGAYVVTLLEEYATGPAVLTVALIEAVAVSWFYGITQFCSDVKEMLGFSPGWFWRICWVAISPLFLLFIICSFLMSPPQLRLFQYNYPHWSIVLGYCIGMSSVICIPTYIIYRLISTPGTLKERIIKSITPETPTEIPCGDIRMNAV
T1 sequence (Q63380 1-617): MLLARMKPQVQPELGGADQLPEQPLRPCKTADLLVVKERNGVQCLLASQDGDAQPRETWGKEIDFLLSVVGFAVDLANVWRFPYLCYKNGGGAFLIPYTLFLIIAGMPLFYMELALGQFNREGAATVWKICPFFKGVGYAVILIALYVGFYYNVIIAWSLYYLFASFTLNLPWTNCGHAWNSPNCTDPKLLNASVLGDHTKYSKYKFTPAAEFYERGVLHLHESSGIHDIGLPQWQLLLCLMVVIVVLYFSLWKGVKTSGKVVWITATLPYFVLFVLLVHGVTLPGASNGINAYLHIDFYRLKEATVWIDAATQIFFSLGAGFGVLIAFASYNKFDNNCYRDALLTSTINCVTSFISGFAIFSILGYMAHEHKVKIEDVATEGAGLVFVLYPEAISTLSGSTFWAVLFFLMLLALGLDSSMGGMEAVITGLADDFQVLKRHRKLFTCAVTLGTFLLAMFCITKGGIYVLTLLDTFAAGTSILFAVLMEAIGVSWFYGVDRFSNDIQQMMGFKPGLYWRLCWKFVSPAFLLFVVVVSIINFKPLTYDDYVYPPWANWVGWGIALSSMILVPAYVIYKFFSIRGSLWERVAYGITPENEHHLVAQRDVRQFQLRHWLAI

Usually melting point stands for the temperature of the solid-liquid transition. For the compound `Fc1ccc(N(c2ccc(-c3cnco3)cc2)[C@H]2CCNC2)cc1Cl` [Example 90], the melting point lay in the range of 115 to 117 °C. Besides, the IC50 in data set [1] was determined as 0.7 nM. Also, the IC50 in data set [2] came out at 4.8 nM. Moreover, the IC50 in data set [3] turned out to be 1.2 nM.
Take `Fc1ccc(N(c2ccc(Cl)nc2)[C@H]2CCNC2)cc1Cl` (as salt: fumarate) [Example 244]: the melting point lay within 136 to 137 °C.
Compound `Fc1ccc(N(c2ccccn2)[C@H]2CCNC2)cc1Cl` (as salt: fumarate) [Example 154] showed a melting point of 152.4 to 154.4 °C.
`CSc1ccc(N(c2ccccc2)[C@H]2CCNC2)cc1` (as salt: fumarate) [Example 19] had a melting point of 152.9 to 155.5 °C.
Still for that read-out and setting: the figure for `Fc1ccc(N(c2ccc3cnsc3c2)[C@H]2CCNC2)cc1Cl` (as salt: hydrochloride) [Example 930] is 150 to 156 °C; for `Fc1ccc(N(c2nccs2)[C@H]2CCNC2)cc1Cl` (as salt: fumarate) [Example 131] it is 128 to 129.9 °C.
On to `Clc1ccc(N(c2cnccn2)[C@H]2CCNC2)cc1Cl` [Example 963], for which the IC50 is 0.8 nM in data set [1], 47.1 nM in data set [2] and 1 nM in data set [3].
For `Fc1ccc(N(c2ccc3cnsc3c2)[C@H]2CCNC2)cc1Cl` [Example 930] the same measures were 1 nM, 6.8 nM and 0.8 nM.
`Fc1ccc(N(c2ccsc2)[C@H]2CCNC2)cc1Cl` (as salt: fumarate) [Example 278] yielded a melting point of 135 to 136 °C.
The compound `Fc1ccc(N(c2ccc3ccsc3c2)[C@H]2CCNC2)cc1` (as salt: fumarate) [Example 114] displayed a melting point of 131.6 to 133.3 °C.
On the same count and under the same terms, the figure for `CCN1CCN(c2ccc(N(c3ccc(F)c(Cl)c3)[C@H]3CCNC3)nc2)CC1` (as salt: hydrochloride) [Example 201] is 208 to 211 °C; for `c1ccc(N(c2ccc3sccc3c2)[C@H]2CCNC2)cc1` (as salt: hydrochloride) [Example 116] it is 158 to 160 °C.
In the case of `Fc1ccc(N(c2ccc(Cl)c(Cl)c2)[C@H]2CCNC2)nc1` [Example 961], the figures for the IC50 in data set [1], in data set [2] and in data set [3] were 0.7 nM, 9.6 nM and 2.8 nM, respectively.
In turn, `Clc1ccc(N(c2ccncc2)[C@H]2CCNC2)cc1Cl` (as salt: salt) [Example 273] registered a melting point of 229 to 231 °C.
As for `Fc1ccc(N(c2ccsc2)[C@H]2CCNC2)cc1Cl` [Example 278], the IC50 amounted to 0.3 nM in data set [1], 34.7 nM in data set [2] and 2.2 nM in data set [3].
In the case of `Fc1ccc(N(c2ccc(Cl)c(Cl)c2)[C@H]2CCNC2)nc1` (as salt: hydrochloride) [Example 961], the melting point was in the range of 96 to 98 °C.
Still for that read-out and setting: the figure for `Clc1ccc(N(c2cccnc2)[C@H]2CCNC2)cc1Cl` (as salt: hydrochloride) [Example 242] is 108 to 110 °C.
Take `CS(=O)(=O)O.CS(=O)(=O)O.Fc1ccc(N(c2cccnc2)[C@H]2CCNC2)cc1Cl` [Example 7, (3-chloro-4-fluorophenyl) pyridin-3-yl-(S)-pyrrolidin-3-ylamine dimethanesulfonate]: the melting point lay within 194 to 195 °C. Moreover, in data set [1], the IC50 turned out to be 0.4 nM. For the same compound, the IC50 in data set [2] came to 45 nM. In addition, the IC50 in data set [3] turned out to be 3 nM.
With `Fc1ccc(N(c2ccccc2)[C@H]2CCNC2)cc1` (as salt: fumarate) [Example 20], the melting point was in the range of 143 to 145 °C.
For `N#Cc1ccc(N(c2ccc(F)c(Cl)c2)[C@H]2CCNC2)cc1` (as salt: fumarate) [Example 73], the melting point is 174 to 175 °C.
On the same count and under the same terms, the figure for `Fc1cccc(N(c2ccc(C(F)(F)F)cc2)[C@H]2CCNC2)c1.O=C(O)/C=C/C(=O)O.O=C(O)/C=C/C(=O)O` is 144 to 146.2 °C; for `Fc1ccc(N(c2ccc(N3CCNCC3)cn2)[C@H]2CCNC2)cc1Cl` (as salt: hydrochloride) [Example 200] it is 212 to 215 °C.
As for `Fc1ccc(N(c2ccc3ncccc3c2)[C@H]2CCNC2)cc1Cl` [Example 913], the figures for the IC50 in data set [1], in data set [2] and in data set [3] were 0.8 nM, 6.5 nM and 0.8 nM, respectively.
`Clc1ccc(N(c2cnccn2)[C@H]2CCNC2)cc1Cl` (as salt: hydrochloride) [Example 963] yielded a melting point of 120 to 124 °C.
As for `Cc1cc(N(c2cncc(F)c2)[C@H]2CCNC2)ccc1F` [Example 895], the IC50 in data set [1] is 0.5 nM; in data set [2], 38 nM; in data set [3] it was 3 nM.
Take `c1ccc(N(c2ccc3sccc3n2)[C@H]2CCNC2)cc1` (as salt: hydrochloride) [Example 934]: the melting point was 241.5 to 243.5 °C.
`Fc1ccc(N(c2ccc3ccsc3c2)[C@H]2CCNC2)cc1` [Example 114]: the IC50 stood at 0.4 nM in data set [1], 32.5 nM in data set [2] and 0.8 nM in data set [3].
With `Clc1ccc(N(c2ccccn2)[C@H]2CCNC2)cc1Cl` (as salt: hydrochloride) [Example 188], the melting point lay in the range of 135 to 138 °C.
For the compound `Fc1cncc(N(c2ccc(F)c(Cl)c2)[C@H]2CCNC2)c1` [Example 894], the IC50 in data set [1] came out at 0.3 nM; in data set [2], 9.4 nM; in data set [3], 2.6 nM.
In turn, `Cc1ccc(N(c2ccccc2)[C@H]2CCNC2)cc1` (as salt: fumarate) [Example 22] yielded a melting point of 141.7 to 143.8 °C.
